{"source": "paper PMC9203742", "about": "(Nature Communications, 2022)", "key": {"mGlu1 A59H/G266H mutant [1]": {"target": "T1, mGlu1 A59H/G266H mutant (Rattus norvegicus, UniProt P23385, A59H/G266H)", "T1 construct": "expressed in transfected cells; host or cells: HEK293", "T1 sequence (P23385 19-1199 A59H/G266H)": "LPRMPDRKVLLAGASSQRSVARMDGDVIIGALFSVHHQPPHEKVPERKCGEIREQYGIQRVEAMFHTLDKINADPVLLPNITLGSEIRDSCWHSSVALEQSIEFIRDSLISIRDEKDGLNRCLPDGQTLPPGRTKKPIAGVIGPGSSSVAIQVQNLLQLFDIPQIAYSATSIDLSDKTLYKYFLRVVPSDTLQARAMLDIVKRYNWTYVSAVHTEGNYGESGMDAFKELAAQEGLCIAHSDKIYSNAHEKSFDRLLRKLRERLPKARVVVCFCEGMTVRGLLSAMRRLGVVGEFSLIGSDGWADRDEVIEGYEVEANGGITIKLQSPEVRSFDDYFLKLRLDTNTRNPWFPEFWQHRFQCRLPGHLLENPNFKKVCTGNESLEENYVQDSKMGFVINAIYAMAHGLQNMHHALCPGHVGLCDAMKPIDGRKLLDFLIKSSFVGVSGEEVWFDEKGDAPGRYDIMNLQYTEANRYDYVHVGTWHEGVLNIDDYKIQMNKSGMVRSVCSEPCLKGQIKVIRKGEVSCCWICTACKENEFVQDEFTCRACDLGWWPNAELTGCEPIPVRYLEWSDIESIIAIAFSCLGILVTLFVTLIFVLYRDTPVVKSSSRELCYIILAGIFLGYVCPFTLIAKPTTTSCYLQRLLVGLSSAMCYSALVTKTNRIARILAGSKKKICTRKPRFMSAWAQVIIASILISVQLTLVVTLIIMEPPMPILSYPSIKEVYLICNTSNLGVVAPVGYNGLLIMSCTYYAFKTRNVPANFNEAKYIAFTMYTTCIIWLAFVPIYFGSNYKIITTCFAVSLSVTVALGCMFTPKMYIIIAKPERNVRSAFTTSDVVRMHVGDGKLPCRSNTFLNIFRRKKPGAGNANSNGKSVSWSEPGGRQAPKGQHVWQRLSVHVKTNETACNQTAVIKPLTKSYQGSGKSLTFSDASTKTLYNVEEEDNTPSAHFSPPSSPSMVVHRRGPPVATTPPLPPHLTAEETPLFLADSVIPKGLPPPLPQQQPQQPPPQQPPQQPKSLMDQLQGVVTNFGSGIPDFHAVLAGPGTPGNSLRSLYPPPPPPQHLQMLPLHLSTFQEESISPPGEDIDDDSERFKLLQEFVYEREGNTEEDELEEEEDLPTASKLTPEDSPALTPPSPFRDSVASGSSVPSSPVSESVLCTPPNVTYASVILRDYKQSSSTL", "test": "Fura-2 Ca2+ imaging in HEK293 cells expressing mGlu1 A59H/G266H; on Ca2+ response (delta ratio), A59H/G266H: test concentration or dose not given here", "assay_type": "cell-based", "conditions": "Fig.1e"}, "[2]": {"tested_on": "mGlu1 construct not given", "test": "Fura-2 Ca2+ imaging in HEK293 cells, source data Suppl Fig1, middle group (c9-c17); construct not given", "assay_type": "cell-based, rat", "conditions": "single-cell values, cells #15-#20; middle group of third block", "from_the_text": "(§1) Supplement 41467_2022_30828_MOESM6_ESM.zip/Ojima et al_source data_Suppl Fig.xlsx, sheet \"Suppl Fig1\" | column: Glu; NiCl2; CuCl2; ZnCl2; CdCl2; Na2PdCl2; Pd(bpy)"}, "mGlu1 P57H/N264H mutant": {"target": "T2, mGlu1 P57H/N264H mutant (Rattus norvegicus, UniProt P23385, N264H/P57H)", "T2 construct": "expressed in transfected cells; host or cells: HEK293", "T2 sequence (P23385 19-1199 P57H/N264H)": "as the sequence (P23385 19-1199 A59H/G266H) above, with P39H, H41A, N246H, H248G counted along it", "test": "Fura-2 Ca2+ imaging in HEK293 cells expressing mGlu1 P57H/N264H", "assay_type": "cell-based"}, "mGlu1 E60H/N264H mutant": {"target": "T3, mGlu1 E60H/N264H mutant (Rattus norvegicus, UniProt P23385, E60H/N264H)", "T3 construct": "expressed in transfected cells; host or cells: HEK293", "T3 sequence (P23385 19-1199 E60H/N264H)": "as the sequence (P23385 19-1199 A59H/G266H) above, with H41A, E42H, N246H, H248G counted along it", "test": "Fura-2 Ca2+ imaging in HEK293 cells expressing mGlu1 E60H/N264H", "assay_type": "cell-based"}, "mGlu1 A59H/A265H mutant [3]": {"target": "T4, mGlu1 A59H/A265H mutant (Rattus norvegicus, UniProt P23385, A265H/A59H)", "T4 construct": "expressed in transfected cells; host or cells: HEK293", "T4 sequence (P23385 19-1199 A59H/A265H)": "as the sequence (P23385 19-1199 A59H/G266H) above, with A247H, H248G counted along it", "test": "Fura-2 Ca2+ imaging in HEK293 cells expressing mGlu1 A59H/A265H", "assay_type": "cell-based", "conditions": "single-cell values"}, "[4]": {"tested_on": "mGlu1 construct not given", "test": "Fura-2 Ca2+ imaging in HEK293 cells, source data Suppl Fig1, right group (c18-c26); construct not given", "assay_type": "cell-based, rat", "conditions": "single-cell values, cells #15-#20; right group of third block", "from_the_text": "as §1"}, "[5]": {"tested_on": "HEK293 cells, vector control", "test": "Fura-2 Ca2+ imaging in HEK293 cells transfected with control vector (Vec)", "assay_type": "cell-based", "conditions": "Fig.1e", "from_the_text": "Supplement 41467_2022_30828_MOESM6_ESM.zip/Ojima et al_source data_Main Figure.xlsx, sheet \"Fig.1e\" | column: Vec"}, "WT mGlu1": {"target": "T5, WT mGlu1 (Rattus norvegicus, UniProt P23385)", "T5 construct": "expressed in transfected cells; host or cells: HEK293", "T5 sequence (P23385 19-1199)": "as the sequence (P23385 19-1199 A59H/G266H) above, with H41A, H248G counted along it", "assay_type": "cell-based"}, "[6]": {"tested_on": "mGlu1 construct not given", "test": "Fura-2 Ca2+ imaging in HEK293 cells, source data Suppl Fig1, left group (c0-c8); construct not given", "assay_type": "cell-based, rat", "conditions": "single-cell values, cells #15-#20; left group of third block", "from_the_text": "as §1"}, "mGlu1 A59H/N264H mutant": {"target": "T6, mGlu1 A59H/N264H mutant (Rattus norvegicus, UniProt P23385, A59H/N264H)", "T6 construct": "expressed in transfected cells; host or cells: HEK293", "T6 sequence (P23385 19-1199 A59H/N264H)": "as the sequence (P23385 19-1199 A59H/G266H) above, with N246H, H248G counted along it", "test": "Fura-2 Ca2+ imaging in HEK293 cells expressing mGlu1 A59H/N264H", "assay_type": "cell-based"}, "[7]": {"tested_on": "HEK293 cells, vector control", "test": "Fura-2 Ca2+ imaging in HEK293 cells transfected with control vector (Vec)", "assay_type": "cell-based", "conditions": "single-cell values #1-#20"}, "mGlu1 K61H/N264H mutant": {"target": "T7, mGlu1 K61H/N264H mutant (Rattus norvegicus, UniProt P23385, K61H/N264H)", "T7 construct": "expressed in transfected cells; host or cells: HEK293", "T7 sequence (P23385 19-1199 K61H/N264H)": "as the sequence (P23385 19-1199 A59H/G266H) above, with H41A, K43H, N246H, H248G counted along it", "test": "Fura-2 Ca2+ imaging in HEK293 cells expressing mGlu1 K61H/N264H", "assay_type": "cell-based"}, "mGlu1 A59H/A265H mutant [8]": {"target": "T4, mGlu1 A59H/A265H mutant", "test": "Fura-2 Ca2+ imaging in HEK293 cells expressing mGlu1 A59H/A265H", "assay_type": "cell-based", "conditions": "Fig.1e"}, "mGlu1 A59H/G266H mutant [9]": {"target": "T1, mGlu1 A59H/G266H mutant", "test": "Fura-2 Ca2+ imaging in HEK293 cells expressing mGlu1 A59H/G266H", "assay_type": "cell-based", "conditions": "single-cell values"}, "mGlu1 P58H/N264H mutant": {"target": "T8, mGlu1 P58H/N264H mutant (Rattus norvegicus, UniProt P23385, N264H/P58H)", "T8 construct": "expressed in transfected cells; host or cells: HEK293", "T8 sequence (P23385 19-1199 P58H/N264H)": "as the sequence (P23385 19-1199 A59H/G266H) above, with P40H, H41A, N246H, H248G counted along it", "test": "Fura-2 Ca2+ imaging in HEK293 cells expressing mGlu1 P58H/N264H", "assay_type": "cell-based"}}, "note": "Values joined by “and” are separate entries in the source; they are usually repeats but may differ in a detail not shown here. Equal values may be shown once. Wherever Ca2+ response (delta ratio), WT is given: test concentration or dose not given here. Wherever Ca2+ response of individual cells (source data Suppl Fig1), Vec is given: test concentration or dose not given here. Wherever Ca2+ response of individual cells (source data Suppl Fig1), WT is given: test concentration or dose not given here."}
{"compound": "[Cl][Ni][Cl]", "note": "[NiCl2]", "values": [{"measurement": "Ca2+ response (delta ratio), A59H/G266H", "setting": "mGlu1 A59H/G266H mutant [1]", "value": "-3.81E-05"}, {"measurement": "Ca2+ response of individual cells (source data, sheet Suppl Fig1)", "setting": "[2]", "value": "0.03642 and 0.005192 and 0.02775 and -0.01323 and -0.002362 and 0.009469"}, {"measurement": "Ca2+ response (delta ratio), P57H/N264H", "setting": "mGlu1 P57H/N264H mutant; Fig.1e", "value": 0.01834}, {"measurement": "Ca2+ response of individual cells (source data Suppl Fig1), P57H/N264H", "setting": "mGlu1 P57H/N264H mutant; single-cell values #1-#20, P57H/N264H", "value": "-0.01177 and -0.0082 and 0.005215 and 0.04513 and 0.01995 and 0.003931 and -0.01436 and 0.02328 and -0.02887 and -0.004769 and -0.02686 and -0.008069 and 0.003369 and 0.01493 and -0.02254 and -0.001223 and 0.3415 and -0.007623 and 0.04519 and -0.0014"}, {"measurement": "Ca2+ response (delta ratio), E60H/N264H", "setting": "mGlu1 E60H/N264H mutant; Fig.1e", "value": -0.01792}, {"measurement": "Ca2+ response of individual cells (source data Suppl Fig1), E60H/N264H", "setting": "mGlu1 E60H/N264H mutant; single-cell values #1-#20, E60H/N264H", "value": "-0.0467 and -0.05411 and -0.02817 and -0.02148 and 0.004623 and 0.0091 and -0.02117 and -0.04309 and -0.01538 and -0.003069 and -0.02522 and -0.003569 and 0.01539 and -0.02995 and -0.01439 and -0.004777 and -0.04676 and -0.0003 and -0.01138"}, {"measurement": "Ca2+ response of individual cells (source data Suppl Fig1), A59H/A265H", "setting": "mGlu1 A59H/A265H mutant [3]", "value": "-0.0004462 and -0.005215 and 0.006554 and -0.007815 and 0.01005 and -0.006508 and -0.02278 and 0.001031 and 0.01621 and 0.004377 and -0.02859 and 0.008423 and 0.09357 and 0.07873"}, {"measurement": "Ca2+ response of individual cells (source data, sheet Suppl Fig1)", "setting": "[4]", "value": "0.03285 and -0.01932 and -0.04406 and 0.003838 and -0.02115 and 0.02962"}, {"measurement": "Ca2+ response (delta ratio), Vec", "setting": "[5]", "value": -0.006595}, {"measurement": "Ca2+ response (delta ratio), WT", "setting": "WT mGlu1; Fig.1e", "value": 0.03319}, {"measurement": "Ca2+ response of individual cells (source data Suppl Fig1), WT", "setting": "WT mGlu1; single-cell values #1-#20, WT", "value": "-0.005477 and -0.01458 and 0.001892 and -0.01835 and 0.1195 and 0.01671 and 0.05379 and 0.4457 and 0.004608 and -0.002423 and 0.004238 and 0.01116 and 0.1174 and -0.002515 and -0.001223 and -0.001015 and -0.0129 and -0.004708 and 0.01682 and -0.06482"}, {"measurement": "Ca2+ response of individual cells (source data, sheet Suppl Fig1)", "setting": "[6]", "value": "-0.01619 and -0.01292 and 0.01722 and -0.04921 and -0.009638 and -0.02348"}, {"measurement": "Ca2+ response (delta ratio), A59H/N264H", "setting": "mGlu1 A59H/N264H mutant; Fig.1e", "value": 0.05683}, {"measurement": "Ca2+ response of individual cells (source data Suppl Fig1), A59H/N264H", "setting": "mGlu1 A59H/N264H mutant; single-cell values #1-#20, A59H/N264H", "value": "0.3729 and -0.001931 and -0.001046 and 0.01178 and 0.01916 and -0.01828 and -0.02652 and 0.02399 and 0.0008077 and 0.2216 and -0.004754 and -0.01916 and -0.02225 and 0.2474 and 0.3157 and 0.001138 and -0.0037 and -0.007646 and -0.0005385 and 0.0279"}, {"measurement": "Ca2+ response of individual cells (source data Suppl Fig1), Vec", "setting": "[7]", "value": "-0.01071 and 0.01858 and -0.01644 and -0.01578 and -0.0028 and -0.01812 and -0.01767 and -0.01609 and -0.0009 and -0.0156 and -0.02858 and -0.009415 and -0.001254 and -0.01445 and -0.004377 and -0.001977 and -0.0008692 and 0.006415 and 0.01396 and 0.004169"}, {"measurement": "Ca2+ response (delta ratio), K61H/N264H", "setting": "mGlu1 K61H/N264H mutant; Fig.1e", "value": -0.01365}, {"measurement": "Ca2+ response of individual cells (source data Suppl Fig1), K61H/N264H", "setting": "mGlu1 K61H/N264H mutant; single-cell values, K61H/N264H", "value": "-0.03782 and -0.01632 and -0.02464 and 0.009846 and -0.01781 and 0.02198 and -0.0009692 and 0.02142 and -0.009608 and -0.02934 and -0.05039 and -0.01796 and -0.007623 and -0.01945"}, {"measurement": "Ca2+ response (delta ratio), A59H/A265H", "setting": "mGlu1 A59H/A265H mutant [8]", "value": 0.01054}, {"measurement": "Ca2+ response of individual cells (source data Suppl Fig1), A59H/G266H", "setting": "mGlu1 A59H/G266H mutant [9]", "value": "-0.007338 and -0.001015 and -0.03149 and 0.03385 and 0.01174 and 0.008792 and -0.03335 and -0.003362 and 0.01265 and 0.02216 and 0.003731 and -0.008569 and 0.01177 and -0.002115"}, {"measurement": "Ca2+ response (delta ratio), P58H/N264H", "setting": "mGlu1 P58H/N264H mutant; Fig.1e", "value": 0.05353}, {"measurement": "Ca2+ response of individual cells (source data Suppl Fig1), P58H/N264H", "setting": "mGlu1 P58H/N264H mutant; single-cell values #1-#20, P58H/N264H", "value": "0.03009 and 0.04043 and -0.04005 and 0.07079 and 0.04304 and 0.04053 and 0.04913 and 0.06845 and 0.2599 and -0.02289 and 0.03599 and 0.03797 and 0.05281 and 0.1306 and 0.05504 and 0.04257 and 0.06472 and 0.07143 and 0.03615 and 0.003946"}]}
